pIC50: −log10 of the molar value.

The first experiment concerns the target T1, pY641-STAT6 in PBMC (Homo sapiens, UniProt P42226).
T1 construct: Cryopreserved Peripheral Blood Mononuclear Cells (PBMC) are from AllCells; host or cells: cryopreserved PBMC
T1 sequence (P42226 1-847): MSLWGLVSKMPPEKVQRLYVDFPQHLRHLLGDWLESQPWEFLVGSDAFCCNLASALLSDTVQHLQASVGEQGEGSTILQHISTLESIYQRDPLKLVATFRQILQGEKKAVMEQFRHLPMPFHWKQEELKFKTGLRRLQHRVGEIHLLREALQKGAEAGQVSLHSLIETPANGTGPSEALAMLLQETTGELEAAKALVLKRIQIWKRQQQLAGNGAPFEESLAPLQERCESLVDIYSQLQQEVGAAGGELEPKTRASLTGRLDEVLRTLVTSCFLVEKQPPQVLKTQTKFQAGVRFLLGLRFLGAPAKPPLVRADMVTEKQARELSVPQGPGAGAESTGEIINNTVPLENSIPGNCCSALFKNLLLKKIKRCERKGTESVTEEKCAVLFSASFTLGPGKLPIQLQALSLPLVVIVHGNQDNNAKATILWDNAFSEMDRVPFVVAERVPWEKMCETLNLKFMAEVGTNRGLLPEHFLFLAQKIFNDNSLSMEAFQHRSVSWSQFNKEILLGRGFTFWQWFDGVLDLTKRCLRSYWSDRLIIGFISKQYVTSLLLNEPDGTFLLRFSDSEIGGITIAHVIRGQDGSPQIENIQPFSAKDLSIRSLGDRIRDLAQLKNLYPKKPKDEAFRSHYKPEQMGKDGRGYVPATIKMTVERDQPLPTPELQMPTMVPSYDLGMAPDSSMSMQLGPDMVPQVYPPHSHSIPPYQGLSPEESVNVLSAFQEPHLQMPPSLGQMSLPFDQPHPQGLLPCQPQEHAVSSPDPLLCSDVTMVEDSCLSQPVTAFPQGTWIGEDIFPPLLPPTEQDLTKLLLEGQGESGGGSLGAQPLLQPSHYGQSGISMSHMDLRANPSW
Put plainly: MSD-pSTAT-PBMC Assay (pSTAT6, IL-4 stimulated). As to conditions: PBMC, compound 3 hrs, then 1 ng/mL IL-4 for 10 min; Table 115; read-out: STAT6. The class given is cell-based. The method in brief: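 Thawed human PBMC rested overnight in IMDM/10% FBS, then got compound for 3 hrs before a 10 min cytokine pulse: 1 ng/mL IL-4 for pSTAT6, 10 ng/mL IL-6 for pSTAT3. Lysates went to MSD sandwich capture on total STAT6 or STAT3 with phospho-specific detection. IC50 came from background-subtracted, DMSO-normalized signal.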
As to `CCCOC(=O)[C@H](C)NP(=O)(Oc1ccccc1)[C@@H](F)c1ccc2sc(C(=O)N[C@H]3CCCC[C@H]4CC[C@@H](C(=O)N5C[C@H](c6cccnc6)[C@@H](C#N)C56CC6)N4C3=O)cc2c1` (stereo partly shown) [Compound 364], the pIC50 was above 7.00.

As for `CC(C)OC(=O)OCOP(=O)(OCCSC(=O)C(C)(C)C)C(F)(F)c1ccc2sc(C(=O)N[C@H]3CCCC[C@H]4CC[C@@H](C(=O)N5C[C@@H](C#N)[C@H](c6ccccc6)C5)N4C3=O)cc2c1` (single isomer, unassigned) [Compound 1012], the pIC50 was above 7.00.

Still in this experiment, the particulars now being: STAT6, PBMC, compound 3 hrs, then 1 ng/mL IL-4 for 10 min; Table 115.
In turn, `CCCOC(=O)[C@H](C)NP(=O)(Oc1ccccc1)C(F)c1ccc2sc(C(=O)N[C@H]3CCCC[C@H]4CC[C@@H](C(=O)N5C(=O)N(c6cccnc6)C(=O)C56CC6)N4C3=O)cc2c1` (stereo partly drawn) [Compound 452, propyl (((2-(((3S,6S,10aS)-3-(5,7-dioxo-6-(pyridin-3-yl)-4,6-diazaspiro[2.4]heptane-4-carbonyl)-5-oxodecahydropyrrolo [1,2-a]azocin-6-yl)carbamoyl)benzo [b]thiophen-5-yl)fluoromethyl) (phenoxy)phosphoryl)-L-alaninate] had a pIC50 above 7.00.

In the case of `COCCOC(=O)[C@H](C)NP(=O)(Oc1ccccc1)[C@@H](F)c1ccc2sc(C(=O)N[C@H]3CCC[C@H]4CC[C@@H](C(=O)N5C[C@@H](c6cccnc6)CC56CC6)N4C3=O)cc2c1` (stereo partly drawn) [Compound 480, 2-methoxyethyl (((R)-fluoro(2-(((3S,6S,9aS)-5-oxo-3-((R)-6-(pyridin-3-yl)-4-azaspiro[2.4]heptane-4-carbonyl)octahydro-1H-pyrrolo[1,2-a]azepin-6-yl)carbamoyl)benzo [b]thiophen-5-yl)methyl)(phenoxy)phosphoryl)-L-alaninate], the pIC50 is above 7.00.

Regarding `CCCOC(=O)[C@H](C)NP(=O)(Oc1ccccc1)[C@@H](F)c1ccc2sc(C(=O)N[C@H]3CCCC[C@H]4CC[C@@H](C(=O)N5C[C@@H](c6cccc(C(F)F)c6)[C@H](C#N)C56CC6)N4C3=O)cc2c1` (single isomer, unassigned) [Compound 482], the pIC50 is above 7.00.

On to `CCCOC(=O)[C@H](C)NP(=O)(Oc1ccccc1)C(F)c1ccc2sc(C(=O)N[C@H]3CCCC[C@H]4CCC[C@@H](C(=O)N5CC(C#N)[C@H](c6ccccc6)C5)N4C3=O)cc2c1` (relative stereo) [Compound 269, propyl (((2-(((4S,7S,11aS)-4-((rel-trans)-3-cyano-4-phenylpyrrolidine-1-carbonyl)-6-oxodecahydro-2H-pyrido[1,2-a]azocin-7-yl)carbamoyl)benzo [b]thiophen-5-yl)fluoromethyl) (phenoxy)phosphoryl)-L-alaninate], for which the pIC50 was above 7.00.

The compound `CCCOC(=O)[C@H](C)NP(=O)(Oc1ccccc1)C(F)c1ccc2ccc(C(=O)N[C@H]3CCCC[C@H]4CC[C@@H](C(=O)N5CCC(c6ccn(C7CC7)c(=O)c6)C5)N4C3=O)cc2c1` (stereo partly drawn) [Compound 455, propyl (((7-(((3S,6S,10aS)-3-(3-(1-cyclopropyl-2-oxo-1,2-dihydropyridin-4-yl)pyrrolidine-1-carbonyl)-5-oxodecahydropyrrolo [1,2-a]azocin-6-yl)carbamoyl)naphthalen-2-yl)fluoromethyl) (phenoxy)phosphoryl)-L-alaninate] showed a pIC50 below 5.52.

`CCCOC(=O)[C@H](C)NP(=O)(Oc1ccccc1)[C@H](F)c1ccc2ccc(C(=O)N[C@H]3CCCC[C@H]4CC[C@@H](C(=O)N5C[C@H](c6ccccc6)[C@@H](C#N)C56CC6)N4C3=O)cc2c1` (stereo partly drawn) [Compound 347, propyl (((S)-(7-(((3S,6S,10aS)-3-((6S,7R)-7-cyano-6-phenyl-4-azaspiro[2.4]heptane-4-carbonyl)-5-oxodecahydropyrrolo [1,2-a]azocin-6-yl)carbamoyl)naphthalen-2-yl)fluoromethyl) (phenoxy)phosphoryl)-L-alaninate] had a pIC50 above 7.00.

In turn, `CCCOC(=O)[C@H](C)NP(=O)(Oc1ccccc1)C(F)c1ccc2ccc(C(=O)N[C@H]3CCCC[C@H]4CC[C@@H](C(=O)N5C[C@@H](c6ccn(C)c(=O)c6)CC56CC6)N4C3=O)cc2c1` (stereo partly drawn) [Compound 441, propyl ((fluoro(7-(((3S,6S,10aS)-3-((R)-6-(1-methyl-2-oxo-1,2-dihydropyridin-4-yl)-4-azaspiro[2.4]heptane-4-carbonyl)-5-oxodecahydropyrrolo [1,2-a]azocin-6-yl)carbamoyl)naphthalen-2-yl)methyl)(phenoxy)phosphoryl)-L-alaninate] showed a pIC50 above 7.00.

Take `CCCOC(=O)[C@@H]1CCCN1P(=O)(Oc1ccccc1)[C@H](F)c1ccc2sc(C(=O)N[C@H]3CCC[C@H]4CC[C@@H](C(=O)N5C[C@H](c6ccccc6)[C@@H](C#N)C56CC6)N4C3=O)cc2c1` (stereo partly drawn) [Compound 487, propyl (((S)-(2-(((3S,6S,9aS)-3-((6S,7R)-7-cyano-6-phenyl-4-azaspiro[2.4]heptane-4-carbonyl)-5-oxooctahydro-1H-pyrrolo[1,2-a]azepin-6-yl)carbamoyl)benzo [b]thiophen-5-yl)fluoromethyl) (phenoxy)phosphoryl)-L-prolinate]: the pIC50 was 5.52 to 6.00.

In turn, `CCCOC(=O)[C@H](C)NP(=O)(Oc1ccccc1)[C@@H](F)c1ccc2sc(C(=O)N[C@H]3CCC[C@H]4CC[C@@H](C(=O)N5C[C@@H](c6cccnc6)CC56CC6)N4C3=O)cc2c1` (stereo partly drawn) [Compound 379, propyl (((R)-fluoro(2-(((3S,6S,9aS)-5-oxo-3-((R)-6-(pyridin-3-yl)-4-azaspiro[2.4]heptane-4-carbonyl)octahydro-1H-pyrrolo[1,2-a]azepin-6-yl)carbamoyl)benzo [b]thiophen-5-yl)methyl)(phenoxy)phosphoryl)-L-alaninate] showed a pIC50 above 7.00.

`CCCOC(=O)[C@H](C)NP(=O)(Oc1ccccc1)C(F)c1ccc2sc(C(=O)N[C@H]3CCCC[C@H]4CC[C@@H](C(=O)N5C(=O)N(c6cccnc6)C(=O)C5(C)C)N4C3=O)cc2c1` (stereo partly drawn) [Compound 989, propyl (((2-(((3S,6S,10aS)-3-(5,5-dimethyl-2,4-dioxo-3-(pyridin-3-yl)imidazolidine-1-carbonyl)-5-oxodecahydropyrrolo [1,2-a]azocin-6-yl)carbamoyl)benzo [b]thiophen-5-yl)fluoromethyl) (phenoxy)phosphoryl)-L-alaninate] had a pIC50 below 5.52.

The compound `C[C@H](NP(=O)(Oc1ccccc1)[C@@H](F)c1ccc2sc(C(=O)N[C@H]3CCCC[C@H]4CC[C@@H](C(=O)N5C[C@@H](c6cccnc6)CC56CC6)N4C3=O)cc2c1)C(=O)OCc1ccccn1` (stereo partly drawn) [Compound 385, pyridin-2-ylmethyl (((R)-fluoro(2-(((3S,6S,10aS)-5-oxo-3-((R)-6-(pyridin-3-yl)-4-azaspiro[2.4]heptane-4-carbonyl)decahydropyrrolo[1,2-a]azocin-6-yl)carbamoyl)benzo [b]thiophen-5-yl)methyl)(phenoxy)phosphoryl)-L-alaninate] gave a pIC50 above 7.00.

Compound `CCCOC(=O)[C@H](C)NP(=O)(Oc1c(C)cccc1C)[C@@H](F)c1ccc2sc(C(=O)N[C@H]3CCC[C@H]4CC[C@@H](C(=O)N5C[C@@H](c6cccnc6)CC56CC6)N4C3=O)cc2c1` (stereo partly drawn) [Compound 481, propyl ((2,6-dimethylphenoxy) ((R)-fluoro(2-(((3S,6S,9aS)-5-oxo-3-((R)-6-(pyridin-3-yl)-4-azaspiro[2.4]heptane-4-carbonyl)octahydro-1H-pyrrolo[1,2-a]azepin-6-yl)carbamoyl)benzo [b]thiophen-5-yl)methyl)phosphoryl)-L-alaninate] gave a pIC50 above 7.00.

Compound `CCCOC(=O)[C@H](C)NP(=O)(Oc1ccccc1)[C@@H](F)c1ccc2sc(C(=O)N[C@H]3CCCC[C@H]4CC[C@@H](C(=O)N5C(=O)N(c6cccnc6)C(=O)C56CC6)N4C3=O)cc2c1` (stereo partly drawn) [Compound 468, propyl (((R)-(2-(((3S,6S,10aS)-3-(5,7-dioxo-6-(pyridin-3-yl)-4,6-diazaspiro[2.4]heptane-4-carbonyl)-5-oxodecahydropyrrolo [1,2-a]azocin-6-yl)carbamoyl)benzo [b]thiophen-5-yl)fluoromethyl) (phenoxy)phosphoryl)-L-alaninate] gave a pIC50 above 7.00.

Consider `CCCOC(=O)[C@H](C)NP(=O)(Cc1ccc2sc(C(=O)N[C@H]3CCC[C@H]4CC[C@@H](C(=O)N5C[C@@H](c6ccccc6)[C@H](C#N)C56CC6)N4C3=O)cc2c1)Oc1ccccc1` (stereo partly drawn) [Compound 486, propyl (((2-(((3S,6S,9aS)-3-((6R,7S)-7-cyano-6-phenyl-4-azaspiro[2.4]heptane-4-carbonyl)-5-oxooctahydro-1H-pyrrolo[1,2-a]azepin-6-yl)carbamoyl)benzo [b]thiophen-5-yl)methyl)(phenoxy)phosphoryl)-L-alaninate], for which the pIC50 was above 7.00.
